Experiments:
[1] = buffer, pH 2
[2] = buffer, pH 2; remark: listed apart in the source
physchem [3] = assay: physchem
physchem [4] = conditions: octanol/water
[5] = octanol/water

## CN(C)Cc1ccccc1
[1]
  log K: -0.23
[2]
  log K: 0.43
Physchem [3]
  pKa: 9.02
Physchem [4]
  logP: 1.91

## C=CCc1ccccc1OCC(O)CNC(C)C (stereo unspecified) [ALPRENOLOL]
[5]
  logPc: 0.25
[1]
  log K: -0.36
[2]
  log K: 2.02

## CN1CCc2cccc3c2[C@H]1Cc1ccc(O)c(O)c1-3 [APOMORPHINE]
[1]
  log K: 0.33
[2]
  log K: 2.74
Physchem [4]
  logP: 2.49

## CC(C)NCC(O)COc1ccc(COCCOC(C)C)cc1 (stereo unspecified) [BISOPROLOL]
[5]
  logPc: -1.22
[1]
  log K: -0.41
[2]
  log K: 1.17

## CCCCN [BUTYLAMINE]
[1]
  log K: 0.29
[2]
  log K: 0.756
Physchem [3]
  pKa: 10.8

## CC(C)NCC(O)COc1cccc2[nH]c3ccccc3c12 (stereo unspecified) [CARAZOLOL]
[5]
  logPc: 0.77
[1]
  log K: -0.01
[2]
  log K: 2.97
Physchem [3]
  pKa: 9.52

## COc1ccccc1OCCNCC(O)COc1cccc2[nH]c3ccccc3c12 (stereo unspecified) [CARVEDILOL]
[5]
  logPc: 1.92
[1]
  log K: -0.2
[2]
  log K: 3.1
Physchem [3]
  pKa: 7.97

## Cc1cccc(C)c1NC(=O)C1CCCCN1C (stereo unspecified) [MEPIVACAINE]
[1]
  log K: -0.18
[2]
  log K: 0.85
Physchem [3]
  pKa: 7.6

## CC([C@H](O)c1ccccc1)N(C)C (stereo partly specified) [METHYLEPHEDRINE]
[1]
  log K: -0.14
[2]
  log K: 0.64
Physchem [3]
  pKa: 9
Physchem [4]
  logP: 1.55

## CC(=O)Oc1c(C)cc(OCC(O)CNC(C)C)c(C)c1C (stereo unspecified) [METIPRANOLOL]
[5]
  logPc: -0.26
[1]
  log K: -0.5
[2]
  log K: 1.57
Physchem [3]
  pKa: 9.54

## COCCc1ccc(OCC(O)CNC(C)C)cc1 (stereo unspecified) [METOPROLOL]
[5]
  logPc: -1.1
[1]
  log K: -0.27
[2]
  log K: 1.1

## NCCO [MONOETHANOLAMINE]
[1]
  log K: 1.1
[2]
  log K: -0.54
Physchem [3]
  pKa: 0.92

## C1COCCN1 [MORPHOLINE]
[1]
  log K: 0.48
[2]
  log K: -0.27

## CC(=O)Oc1cc(C(C)C)c(OCCN(C)C)cc1C [MOXISYLYTE]
[1]
  log K: -0.86
[2]
  log K: 1.53
Physchem [3]
  pKa: 8.72

## CC(C)(C)NCC(O)COc1cccc2c1CC(O)C(O)C2 (stereo unspecified) [NADOLOL]
[1]
  log K: 0.5
[2]
  log K: 0.59
Physchem [4]
  logP: 0.81

## CN1CCC[C@H]1c1cccnc1 [NICOTINE]
[1]
  log K: 0.14
[2]
  log K: -0.02
Physchem [3]
  pKa: 3.4
Physchem [4]
  logP: 1.34

## NCC(O)c1ccc(O)cc1 (stereo unspecified) [OCTOPAMINE]
[1]
  log K: 1.15
[2]
  log K: 0.44
Physchem [3]
  pKa: 8.81

## C=CCOc1ccccc1OCC(O)CNC(C)C (stereo unspecified) [OXPRENOLOL]
[5]
  logPc: -0.13
[1]
  log K: -0.34
[2]
  log K: 1.43
Physchem [3]
  pKa: 9.57

## CC(C)(C)NC[C@H](O)COc1ccccc1C1CCCC1 [PENBUTOLOL]
[5]
  logPc: 1.32
[1]
  log K: -0.51
[2]
  log K: 3.08
Physchem [3]
  pKa: 9.92
Physchem [4]
  logP: 4.62

## CC(C)NCC(O)COc1cccc2[nH]ccc12 (stereo unspecified) [PINDOLOL]
[5]
  logPc: -1.32
[1]
  log K: 0.08
[2]
  log K: 1.63

## CCCNC(C)C(=O)Nc1ccccc1C (stereo unspecified) [PRILOCAINE]
[1]
  log K: -0.17
[2]
  log K: 0.93
Physchem [3]
  pKa: 7.8

## CCN(CC)CCOC(=O)c1ccc(N)cc1 [PROCAINE]
[1]
  log K: -0.26
[2]
  log K: 1.05
Physchem [3]
  pKa: 9

## CC(C)NCC(O)COc1cccc2ccccc12 (stereo unspecified) [PROPRANOLOL]
[1]
  log K: -0.19
[2]
  log K: 2.71

## C1COC(NC(C2CC2)C2CC2)=N1 [RILMENIDINE]
[1]
  log K: -0.41
[2]
  log K: 0.88
Physchem [3]
  pKa: 9.22
Physchem [4]
  logP: 1.7

## NCCc1c[nH]c2ccc(O)cc12 [SEROTONIN]
[1]
  log K: 1.15
[2]
  log K: 1.19

## O=C1C[C@@H]2OCC=C3CN4CC[C@]56c7ccccc7N1[C@H]5[C@H]2[C@H]3C[C@H]46 [STRYCHNINE]
[1]
  log K: 0.06
[2]
  log K: 1.18

## CC(C)(C)NC[C@H](O)COc1nsnc1N1CCOCC1 [TIMOLOL]
[5]
  logPc: -0.94
[1]
  log K: 0.08
[2]
  log K: 0.9
Physchem [3]
  pKa: 9.53
Physchem [4]
  logP: 2.12

## COC(=O)[C@@H](N)Cc1ccc(O)cc1 [TYROSINE METHYL ESTER]
[1]
  log K: 0.57
[2]
  log K: 0.26
